The conditions of assay [1]: asthmatics, double-blind randomized control trial; cited from earlier work.
Assay [2] in a line: Case report: diffused essential oils after NAC and Dornase Alfa in a child with RSV, oxygen requirement and atelectasis. Type of assay: in vivo, human. The following applies: for Overall response of oxygen requirement to treatment: summary of the case. The text has this: They experienced a three day prodrome of upper and lower respiratory symptoms and increasing oxygen requirement treated initially at home. They were admitted to a local hospital 7 days prior to the current admission where they continued to received oxygen and was started on a 7 day antibiotic course despite a positive respiratory direct fluorescent antibody test for RSV. They were discharged home on 3 liters oxygen and persistent left upper lobe atelectasis. They presented to our pediatric intensive care unit (PICU) within 12 hours of discharge with respiratory distress and central cyanosis, pulse oximetry oxygen saturation (spO2) 83% off oxygen, 88% on 3 liters per minute (LPM) oxygen.
Past medical history was significant for titanium rib insertion for restrictive lung disease, metal rods for thoracic scoliosis, hip repair for hip dislocation, and gastric feeding tube placement. Their home medication regimen included a multivitamin, calcium carbonate, and levalbuterol 1 unit dose nebulized every 8 hours. Lasix had been added during the prior hospitalization.
MW was placed on 6 liters humidified, high-flow nasal canula oxygen (NC O2), achieving a spO2 of 93-98%. […] pulmonary toilet regimen consisted of percussor chest physiotherapy every four hours and postural drainage. On day 4 of admission, day 14 of oxygen requirement, nebulized 20% n-acetyl cysteine (NAC) every eight hours was added. Oxygen requirement began to improve over the next 24 hours, weaning to 2 LPM NC O2, but returned to 3 LPM when […] remained persistently below spO2 93%. Nebulized Dornase Alfa 2.5 mg every twelve hours was added on day 7, day 17 of oxygen requirement. Oxygen requirement remained at 3 LPM with frequent desaturations to the mid 80's despite the intensification of mucolytic therapy.
On day 8, the previous treatments were discontinued and the essential oil mixture described in TABLE 1, above, including Lavandula latifolia (spike lavender), Thymus mastichina (Spanish marjoram), Abies balsamea (balsam fir), and Mentha×piperita (peppermint) was nebulized at the parents' request. Three drops were applied to a fibrous filter inserted into the base of a fan diffuser (Fan Fuser, Cinegraph, Inc. Seal Beach, Calif.). The mixture was diffused every six hours into the room and passively inhaled by MW. Oxygen requirement was reduced to 1.5 LPM within 12 hours. […] MW was weaned to ¼ LPM NC O2 on the second day of use wand discharged home with an spO2 of 97%, on day 10 of admission, day 20 of oxygen requirement.

These results are taken from patent US20090169487A1, “Essential Oil Diffusion” (priority 2007, published 2009).

Turning to `CC12CCC(CC1)C(C)(C)O2` [eucalyptol, 1,8 cineole], the Steroid-sparing effect result in assay [1] is “steroid-sparing effects”.

On to `CC(=O)N[C@@H](CS)C(=O)O` [n-acetyl cysteine (NAC), N-Acetyl Cysteine], for which the “Oxygen requirement returned to” value in assay [2] (on NAC, when they remained persistently below spO2 93%) was found to be 3 LPM. In addition, the “Oxygen requirement (NC O2)” value in assay [2] (over the next 24 hours after adding nebulized 20% NAC every eight hours, from 6 liters high-flow) is listed as 2 LPM. Besides, the “Overall response of oxygen requirement to treatment” value in assay [2] was “insufficient or worsening response”.

B1: Dornase Alfa: recombinant human DNase which decreases the viscoelasticity of mucous (protein, UniProt P24855 23-282, looked up)
Deoxyribonuclease-1: LKIAAFNIQTFGETKMSNATLVSYIVQILSRYDIALVQEVRDSHLTAVGKLLDNLNQDAPDTYHYVVSEPLGRNSYKERYLFVYRPDQVSAVDSYYYDDGCEPCGNDTFNREPAIVRFFSRFTEVREFAIVPLHAAPGDAVAEIDALYDVYLDVQEKWGLEDVMLMGDFNAGCSYVRPSQWSSIRLWTSPTFQWLIPDSADTTATPTHCAYDRIVVAGMLLRGAVVPDSALPFNFQAAYGLSDQLAQAISDHYPVEVMLK
Consider B1, for which the “Desaturations (spO2)” value in assay [2] (frequent desaturations despite intensified mucolytic therapy (NAC plus Dornase Alfa)) is given as “mid 80's”. In assay [2] (nebulized 2.5 mg every twelve hours added on day 7, on top of NAC), this molecule showed an Oxygen requirement of 3 LPM. Besides, the “Overall response of oxygen requirement to treatment” value in assay [2] is reported as “insufficient or worsening response”.
